Results reported in the NIST ThermoML archive (doi:10.1021/je900632q).
± gives the expanded uncertainty stated by the source.

Settings: 101.3 kPa, Liquid

CCCCn1cc[n+](C)c1.N#CN=C=[N-] [1-butyl-3-methylimidazolium dicyanamide]
Settings | mass density [kg/m3] | viscosity [mPa·s]
278.15 K | 1075.8 ± 1.2 | 82.07 ± 2.3
283.15 K | 1072.6 ± 1.2 | 62.54 ± 0.89
288.15 K | 1069.4 ± 1.2 | 48.93 ± 0.71
293.15 K | 1066.2 ± 1.2 | 39.14 ± 0.57
298.15 K | 1063.1 ± 1.2 | 31.8 ± 0.47
303.15 K | 1059.9 ± 1.2 | 26.29 ± 0.39
308.15 K | 1056.8 ± 1.2 | 21.79 ± 0.32
313.15 K | 1053.7 ± 1.2 | 18.5 ± 0.28
318.15 K | 1050.6 ± 1.2 | 15.88 ± 0.24
323.15 K | 1047.5 ± 1.1 | 13.78 ± 0.21
328.15 K | 1044.4 ± 1.1 | 12.06 ± 0.18
333.15 K | 1041.3 ± 1.1 | 10.65 ± 0.16
338.15 K | 1038.2 ± 1.1 | 9.475 ± 0.15
343.15 K | 1035.1 ± 1.1 | 8.485 ± 0.13
348.15 K | 1032.1 ± 1.1 | 7.643 ± 0.12
353.15 K | 1029 ± 1.1 | 6.923 ± 0.11
358.15 K | 1025.8 ± 1.1 | 6.304 ± 0.1
363.15 K | 1022.7 ± 1.1 | 5.77 ± 0.094
